Tests used:
FLT3 = FLT3 enzymatic assay; assay type: biochemical
Description: Example C. FLT3 Enzymatic Assay
The kinase assays were carried out at room temperature in assay buffer (HEPES 50 mM, pH 7.0, NaN3 0.02%, BSA 0.01%, Orthovanadate 0.1 mM, DTT 1 mM, MgCl2 10 mM) in a final volume of 10 μL. Testing compounds were prepared by serial dilution in DMSO and transferred to the plate wells by ECHO liquid handler (Labcyte) with 0.5% DMSO in the final assay. […]. Reactions were initiated by the addition of 5 μL ATP in assay buffer. The final 10 μL kinase reaction consists of 0.011 nM FLT3, 1 mM ATP, 500 nM TK Substrate-biotin and SEB reagent 62.5 nM in assay buffer. […] The plates were then sealed and centrifuged at 1800 rpm for 2 minutes. After 60 minutes incubation at room temperature, the product activity was determined by measuring the fluorescence at 620 nm and 665 nm on Pherastar microplate reader (BMG Labtech). A ratio is calculated (665/620 nm) for each well. Wells with DMSO only were served as the positive controls and wells containing no ATP were used as negative controls. IC50 determination was performed by fitting the curve of percent control activity versus the log of the compound concentration using the GraphPad Prism 7.0 software.

[1] = system: STAT5 (Tyr694) phosphorylation in SET-2 cells; test: STAT5 (Tyr694) phosphorylation cell based assay; details: Homo sapiens, pSTAT5, 2 hours, read-out: SET2 IC50
Description: Example E. STAT5 (Tyr694) Phosphorylation Cell Based Assay
SET-2 cells was purchased from DSMZ (Germany). RPMI1640 medium, Fetal Bovine Serum and 384-white sold flat-bottom small volume plate were purchased from Thermo Fisher Scientific (Waltham, MA). Phospho-STAT5 (Tyr694) HTRF kit was purchased from Perkin Elmer (Waltham, MA).
SET-2 cells were cultured in RPMI media with 20% FBS at 37° C. in humidified incubator supplied with 5% CO2. On the day of assay, the cells were centrifuged to remove the culture media and resuspended with prewarmed RPMI with 10% FBS. Testing compounds were prepared by serial dilution in DMSO and 50 nL/well test compounds were transferred to the 384 white low volume cell culture plate (Greiner Bio-one) by ECHO liquid handler (Labcyte). The cells were then dispensed with Multidrop (Thermo Fisher, Waltham, MA) at 10 μL/well (7×10^6 cells/mL) with 0.5% DMSO in the final assay. After the treated cells were incubated for 2 hours at 37° C./5% CO2 incubator, 4 μL/well supplemented lysis buffer (100× blocking buffer diluted 25 fold in 4× lysis buffer, Perkin Elmer) were added and incubated at room temperature for 90 min on orbital shaker at 600 rpm. Phospho-STAT5 Cryptate antibody and Phospho-STAT5 d2 antibody (1:1 vol/vol) were premixed and diluted 20 fold with in the detection buffer (Perkin Elmer). 4 μL of the premixed antibody solution were added to each well followed with 24 hours incubation at room temperature on orbital shaker at 600 rpm. The product activity was determined by measuring the fluorescence at 620 nm and 665 nm on Pherastar microplate reader (BMG Labtech). A ratio is calculated (665/620) for each well. Wells with DMSO only served as the positive controls and wells containing high concentration of control compound were used as negative controls. IC50 determination was performed by fitting the curve of percent control activity versus the log of the compound concentration using the GraphPad Prism 7.0 software.

[2] = system: pSTAT5 signaling in SET-2 cells in whole blood; test: pSTAT5 SET-2 whole blood MSD assay; assay type: cell-based; details: Homo sapiens, pSTAT5, 2 hour, read-out: SET2 WB IC50
Description: Example F. pSTAT5 SET-2 Whole Blood MSD Assay
SET-2 cells shipped from ABS, RPMI1640 medium, Fetal Bovine Serum from Gibco, Phospho-STAT5a,b Whole Cell Lysate Kit from Mesoscale, Retronectin (Recombinant Human Fibronectin Fragment) from TaKaRa, 96 well cell culture plate flat bottom from Corning, lysis buffer from Cell Signaling Technology, and sterile PBS from Gibco. Whole Blood from by BioIVT.
SET-2 cells were cultured in RPMI media with 20% FBS at 37° C. humidified incubator supplied with 5% CO2. On the day of the assay, 40 uL per well of diluted retronectin working solution was added to sterile 96-well clear flat bottom tissue culture plates (1:200 dilution of retronectin in sterile PBS) and incubated at 37 C for 1 hour. After 1 hour, the retronectin working solution was aspirated and SET-2 cells were seeded at 100,000/well in RPMI+20% FBS. Cells were incubated overnight at 37° C. and 5% CO2. The next day, the medium was removed and 40 μL of diluted compounds in serum-free RPMI and whole blood was added to the cells for a 2 hour incubation at 37° C. and 5% CO2. The compound starting concentration is 20 μM and 2.5 fold serial diluted down to 0.21 nM. The whole blood and compound mixture was then aspirated off using the BlueCat plate washer and washed 1× with PBS. Cells were lysed by adding 40 μL of 3× complete lysis buffer and shaken at room temperature for 45-60 minutes (complete lysis buffer consists of Cell Signaling Technology lysis buffer diluted to 3× and supplemented with Mesoscale's protease inhibitor, phosphatase I inhibitor, and phosphatase II inhibitor). The pSTAT5 MSD plates were blocked by adding 150 μL of Blocker A solution per well to the MSD plates and incubated at room temperature with shaking at 400 rpm for one hour or longer. After blocking, plates were washed 3× with 300 μL/well of IX Tris Wash Buffer. After lysis, added 25 μL per well of lysed sample was added to MSD plate and incubated with shaking at 4° C. wrapped in foil overnight. The next day, plates were washed again and 25 μL/well of diluted 1× Detection Antibody Solution, wrapped in foil, and incubated at room temperature with shaking at 400 rpm for 1 hour. Plates were then washed again and lastly, 150 μL/well of 1× Read Buffer T was added to all wells. Plates were analyzed on MSD Discovery within 5 minutes. […] Data analysis was performed in GraphPad Prism using a 4-parameter fit and data was reported as Average±SD.

| SMILES | Selectivity FLT3/JH2 V617F (FLT3) | IC50 [1] | IC50 [2] |
| --- | --- | --- | --- |
| [2H]C([2H])([2H])n1cc(-c2[nH]c3ncc4c(c3c2-c2ccc3c(cnn3CC(F)F)c2)n([C@@H]2CC[C@@H](NC(=O)OC)C2)c(=O)n4C)c(F)n1 [Example 18, Methyl ((1R,3R)-3-(8-(1-(2,2-difluoroethyl)-1H-indazol-5-yl)-7-(3-fluoro-1-(methyl-d3)-1H-pyrazol-4-yl)-3-methyl-2-oxo-3,6-dihydroimidazo[4,5-d]pyrrolo[2,3-b]pyridin-1(2H)-yl)cyclopentyl)carbamate] | ****** (selectivity of >12500-fold) | ≤ 300 nM | ≤ 2500 nM |
| [2H]C([2H])([2H])n1ncc2cc(-c3c(-c4cn(C)nc4OC)[nH]c4ncc5c(c34)n(C3CCOCC3)c(=O)n5C)ccc21 [B, reference compound] | * (selectivity of ≤500-fold) | > 800 nM | > 7500 nM |
| [2H]C([2H])([2H])n1cc(-c2[nH]c3ncc4c(c3c2-c2ccc3c(c2)COC3(C)C)n([C@@H]2CC[C@@H](NC(=O)OC)C2)c(=O)n4C([2H])([2H])[2H])c(F)n1 [Example 8, Methyl ((1R,3R)-3-(8-(1,1-dimethyl-1,3-dihydroisobenzofuran-5-yl)-7-(3-fluoro-1-(methyl-d3)-1H-pyrazol-4-yl)-3-(methyl-d3)-2-oxo-3,6-dihydroimidazo[4,5-d]pyrrolo[2,3-b]pyridin-1(2H)-yl)cyclopentyl)carbamate] | ****** (selectivity of >12500-fold) | ≤ 300 nM | ≤ 2500 nM |
| [2H]C([2H])([2H])n1cc(-c2[nH]c3ncc4c(c3c2-c2ccc3c(cnn3C([2H])([2H])[2H])c2)n([C@@H]2CC[C@@H](NC(=O)OC)C2)c(=O)n4C([2H])([2H])[2H])c(F)n1 [Example 6, Methyl ((1R,3R)-3-(7-(3-fluoro-1-(methyl-d3)-1H-pyrazol-4-yl)-3-(methyl-d3)-8-(1-(methyl-d3)-1H-indazol-5-yl)-2-oxo-3,6-dihydroimidazo[4,5-d]pyrrolo[2,3-b]pyridin-1(2H)-yl)cyclopentyl)carbamate] | ***** (selectivity of >5000-fold to ≤12500-fold) | ≤ 300 nM | ≤ 2500 nM |
| [2H]C([2H])([2H])n1ncc2cc(-c3c(-c4cn(C([2H])([2H])C([2H])([2H])[2H])nc4F)[nH]c4ncc5c(c34)n([C@@H]3CC[C@@H](NC(=O)OC)C3)c(=O)n5C([2H])([2H])[2H])ccc21 [Example 15, Methyl ((1R,3R)-3-(7-(1-(ethyl-d5)-3-fluoro-1H-pyrazol-4-yl)-3-(methyl-d3)-8-(1-(methyl-d3)-1H-indazol-5-yl)-2-oxo-3,6-dihydroimidazo[4,5-d]pyrrolo[2,3-b]pyridin-1(2H)-yl)cyclopentyl)carbamate] | ***** (selectivity of >5000-fold to ≤12500-fold) | ≤ 300 nM | ≤ 2500 nM |
| COC(=O)N[C@@H]1CC[C@@H](n2c(=O)n(C)c3cnc4[nH]c(-c5cn(C)nc5OC)c(-c5ccc(F)cc5)c4c32)C1 [Example 1, Methyl ((1R,3R)-3-(8-(4-fluorophenyl)-7-(3-methoxy-1-methyl-1H-pyrazol-4-yl)-3-methyl-2-oxo-3,6-dihydroimidazo[4,5-d]pyrrolo[2,3-b]pyridin-1(2H)-yl)cyclopentyl)carbamate] | **** (selectivity of >1750-fold to ≤5000-fold) | > 800 nM | 2500 to 5000 nM |
| [2H]C([2H])([2H])n1cc(-c2[nH]c3ncc4c(c3c2-c2ccc(F)cc2)n([C@@H]2CC[C@@H](NC(=O)OC)C2)c(=O)n4C([2H])([2H])[2H])c(F)n1 [Example 7, Methyl ((1R,3R)-3-(7-(3-fluoro-1-(methyl-d3)-1H-pyrazol-4-yl)-8-(4-fluorophenyl)-3-(methyl-d3)-2-oxo-3,6-dihydroimidazo[4,5-d]pyrrolo[2,3-b]pyridin-1(2H)-yl)cyclopentyl)carbamate] | **** (selectivity of >1750-fold to ≤5000-fold) | 300 to 800 nM | 2500 to 5000 nM |
| [2H]C([2H])([2H])n1c(=O)n([C@@H]2CC[C@@H](NC(=O)OC)C2)c2c3c(-c4ccc5c(c4)COC5(C)C)c(-c4cn(CC)nc4F)[nH]c3ncc21 [Example 20, Methyl ((1R,3R)-3-(8-(1,1-dimethyl-1,3-dihydroisobenzofuran-5-yl)-7-(1-ethyl-3-fluoro-1H-pyrazol-4-yl)-3-(methyl-d3)-2-oxo-3,6-dihydroimidazo[4,5-d]pyrrolo[2,3-b]pyridin-1(2H)-yl)cyclopentyl)carbamate] | ****** (selectivity of >12500-fold) | ≤ 300 nM | ≤ 2500 nM |
| [2H]C([2H])([2H])n1c(=O)n([C@@H]2CC[C@@H](NC(=O)OC)C2)c2c3c(-c4ccc5c(c4)COC5(C)C)c(-c4cn(C([2H])([2H])C([2H])([2H])[2H])nc4F)[nH]c3ncc21 [Example 19, Methyl ((1R,3R)-3-(8-(1,1-dimethyl-1,3-dihydroisobenzofuran-5-yl)-7-(1-(ethyl-d5)-3-fluoro-1H-pyrazol-4-yl)-3-(methyl-d3)-2-oxo-3,6-dihydroimidazo[4,5-d]pyrrolo[2,3-b]pyridin-1(2H)-yl)cyclopentyl)carbamate] | ****** (selectivity of >12500-fold) | ≤ 300 nM | ≤ 2500 nM |
| COc1nn(C)cc1-c1[nH]c2ncc3c(c2c1-c1ccc2c(cnn2C)c1)n(C1CCOCC1)c(=O)n3C [A, reference compound] | * (selectivity of ≤500-fold) | > 800 nM | > 7500 nM |
| [2H]C([2H])([2H])n1ncc2cc(-c3c(-c4cn(C)nc4OC)[nH]c4ncc5c(c34)n([C@@H]3CC[C@@H](NC(=O)OC)C3)c(=O)n5C)ccc21 [Example 5, Methyl ((1R,3R)-3-(7-(3-methoxy-1-methyl-1H-pyrazol-4-yl)-3-methyl-8-(1-(methyl-d3)-1H-indazol-5-yl)-2-oxo-3,6-dihydroimidazo[4,5-d]pyrrolo[2,3-b]pyridin-1(2H)-yl)cyclopentyl)carbamate] | ***** (selectivity of >5000-fold to ≤12500-fold) | ≤ 300 nM | ≤ 2500 nM |
| COc1nn(C)cc1-c1[nH]c2ncc3c(c2c1-c1ccc2c(cnn2C)c1)n([C@H]1CC[C@@H](CC#N)CC1)c(=O)n3C [E, reference compound] | * (selectivity of ≤500-fold) | 300 to 800 nM | – |

— US12084430B2, “Tricyclic urea compounds as JAK2 V617F inhibitors” (Incyte Corporation, priority 2022, dated 2024)
